pIC50: −log10 of the molar value. Where “and” joins values, the source holds several entries; their conditions need not be identical. Equal values may be shown once. Entries after “also recorded” stand apart in the source; their conditions may differ. Read-outs that look alike come from different tables or passages of the source.
Assays:
human TYR [1] = biological target: T1, human TYR (Homo sapiens, UniProt P14679); assay: In vitro TYR activity assay with lysates of HEK293-TYR cells; assay type: biochemical; settings: for IC50: lysates of HEK293-TYR cells, read-out: IC50 against human TYR activity (converted)
T1 construct: expressed in transfected cells
T1 sequence (P14679 19-529): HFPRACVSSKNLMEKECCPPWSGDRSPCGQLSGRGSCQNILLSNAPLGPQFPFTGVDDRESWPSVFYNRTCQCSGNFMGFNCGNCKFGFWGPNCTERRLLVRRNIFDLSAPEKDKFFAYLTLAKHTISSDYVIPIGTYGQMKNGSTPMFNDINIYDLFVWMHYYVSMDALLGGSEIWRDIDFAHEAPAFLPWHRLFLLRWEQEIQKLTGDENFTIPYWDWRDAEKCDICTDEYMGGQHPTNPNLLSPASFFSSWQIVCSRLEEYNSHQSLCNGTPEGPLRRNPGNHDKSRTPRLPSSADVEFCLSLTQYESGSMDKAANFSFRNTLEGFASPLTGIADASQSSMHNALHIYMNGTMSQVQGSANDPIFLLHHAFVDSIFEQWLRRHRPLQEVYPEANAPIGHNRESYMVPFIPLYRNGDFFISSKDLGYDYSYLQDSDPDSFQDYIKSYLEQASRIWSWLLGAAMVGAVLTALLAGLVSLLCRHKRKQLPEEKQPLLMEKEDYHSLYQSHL

[2] = test system: human epidermal melanocytes (HEMs); assay: Melanin synthesis in HEMs stimulated by L-tyrosine; assay type: cell-based; settings: 1.0 mM L-tyrosine, repeated treatment for 6 days
Experimental: (§1) Melanogenesis in HEMs was determined as previously described. Cells were pretreated with test material for 60 min, and then melanogenesis was stimulated by adding L-tyrosine (1.0 mM). Media were replaced every other day, and cells were cultured for 6 days. Intracellular melanin was extracted using 0.1 M NaOH at 60°C for 60 min, quantified by measuring absorbance at 490 nm, and normalized for protein content using the Bio-Rad DC assay. Cell viabilities were determined using 3-[4,5-dimethylthiazol-2-yl]-2,5-diphenyltetrazolium bromide.

murine TYR [3] = biological target: T2, murine TYR (Mus musculus, UniProt P11344); assay: In vitro TYR activity assay with lysates of murine B16/F10 cells; assay type: biochemical; settings: for IC50: read-out: IC50 against murine TYR activity (converted)
T2 sequence (P11344 19-533): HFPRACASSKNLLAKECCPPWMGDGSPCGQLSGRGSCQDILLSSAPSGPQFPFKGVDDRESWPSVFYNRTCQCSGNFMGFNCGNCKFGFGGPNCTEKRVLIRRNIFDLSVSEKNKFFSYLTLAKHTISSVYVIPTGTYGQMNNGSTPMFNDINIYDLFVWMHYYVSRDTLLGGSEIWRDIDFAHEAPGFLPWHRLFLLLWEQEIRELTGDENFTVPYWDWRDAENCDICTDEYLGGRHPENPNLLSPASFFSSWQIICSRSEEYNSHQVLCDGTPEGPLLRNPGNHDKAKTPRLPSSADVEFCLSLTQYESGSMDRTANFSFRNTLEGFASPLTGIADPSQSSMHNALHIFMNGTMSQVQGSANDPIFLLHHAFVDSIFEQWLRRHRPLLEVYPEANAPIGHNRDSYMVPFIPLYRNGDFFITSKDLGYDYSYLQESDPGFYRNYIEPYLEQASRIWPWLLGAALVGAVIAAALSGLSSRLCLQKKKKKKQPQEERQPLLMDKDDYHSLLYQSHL

[4] = test system: human epidermal melanocytes (HEMs); assay: Cell viability of HEMs (MTT); assay type: cell-based; settings: repeated treatment for 6 days
Experimental: as §1

human TYR [5] = biological target: T1, human TYR; assay: In vitro TYR activity assay with lysates of HEMs; assay type: biochemical; settings: read-out: IC50 against human TYR activity (converted)
Experimental: Human epidermal melanocytes (HEMs), derived from moderately pigmented neonatal foreskins, were obtained from Cascade Biologics (Portland, OR, USA). Cells were grown in Medium 254 supplemented with human melanocyte growth supplement (Cascade Biologics) and antibiotics. HEK293 cells and murine melanoma B16/F10 cells (CRL-6475) were obtained from the American Type Culture Collection (Manassas, VA, USA). HEK 293 cells were transformed into HEK293-TYR cells stably expressing human TYR, as previously described. HEK293 cells, HEK293-TYR cells, and murine melanoma B16/F10 cells were cultured in growth medium (Dulbecco's minimum Eagle's medium (DMEM) containing 10% fetal bovine serum and antibiotics (100 U mL^−1 penicillin, 0.1 mg mL^−1 streptomycin, and 0.25 µg mL^−1 amphotericin B)). Cells were cultured at 37°C in a humidified atmosphere containing 5% CO2 and 95% air. Cells were lysed in ice-cold lysis buffer (10 mM Tris-Cl, pH 7.4, 120 mM NaCl, 25 mM KCl, 2.0 mM EGTA, 1.0 mM EDTA, and 0.5% Triton X-100 and protease inhibitor cocktail) and centrifuged at 13,000 ×g for 15 min at 4°C to obtain clear supernatants which were used as cell lysates.
In vitro TYR assays were run for human, murine, and mushroom TYRs. […] The formation of DOPA chrome was monitored by measuring absorbance at 490 nm with a BioRad Model 680 microplate reader (Bio-Rad Laboratories, Inc., Hercules, CA, USA). […]

mushroom TYR = assay: In vitro mushroom TYR activity assay; assay type: biochemical; settings: compared with human and murine TYRs
Experimental: In vitro TYR assays were run for human, murine, and mushroom TYRs. The lysates of HEK293-TYR cells were used as a human TYR preparation in most experiments. In some experiments, the lysates of murine B16/F10 cells (Figure 5), HEK293 cells, and HEMs (Figure 6) were used for comparative purposes. Mushroom TYR was purchased from Sigma-Aldrich. The reaction mixture (200 μL) containing either cell lysates (40 μg protein) or mushroom TYR (20 U) and 0.5 mM L-tyrosine, 1 μM DOPA in 100 mM sodium phosphate buffer (pH 6.8) was placed on a 96-well microplate and incubated at 37°C. The formation of DOPA chrome was monitored by measuring absorbance at 490 nm with a BioRad Model 680 microplate reader (Bio-Rad Laboratories, Inc., Hercules, CA, USA). Assays were also run in the absence of TYR enzyme to correct for potential nonenzymatic reactions. Samples and reference inhibitors were included in reaction mixtures at different concentrations.

murine TYR [6] = biological target: T2, murine TYR; set-up: method as in Yanagihara et al. [30]; settings: ref Yanagihara et al. [30]; read-out: IC50 against murine TYR (converted); cited from earlier work
murine TYR [7] = biological target: T2, murine TYR; set-up: method as in Kim et al. [29]; settings: at 100 µM or 22.8 µg mL^−1; ref Kim et al. [29]; cited from earlier work

With `O=C(O)/C=C/c1ccc(O)cc1` [p-coumaric acid, reference compound] the IC50 (human TYR [1]) was 4.02 µM, the “effect on melanin synthesis in HEMs” value [2] was “dose dependently attenuated” and the IC50 (murine TYR [3]) was 12.2 µM. For the same compound, the “cytotoxic effect in HEMs” value ([4]; at 100 µM) was “only a little cytotoxic effect”.
In the case of `Oc1ccc(/C=C/c2cc(O)cc(O)c2)cc1` [resveratrol], the IC50 (human TYR [5]) was 5.3 µM and 5.26 µM, the “effect on mushroom TYR activity” value (mushroom TYR) was “much smaller effect on mushroom TYR activity; also recorded: very low” and the “inhibition of human TYR activity” value (human TYR [1]; at 10~30 µg mL^−1, lysates of HEK293-TYR cells and HEMs) was 80~90%. The IC50 (human TYR [1]) was 1.71 µM and 1.7 µM, the “effect on melanin synthesis in HEMs” value [2] was “dose dependently attenuated; also recorded: reduce melanin synthesis in HEMs at subtoxic concentrations” and the “effect on melanin synthesis in HEMs” value ([2]; listed as Resveratrol) was “inhibited melanin synthesis by human epidermal melanocytes at subtoxic concentrations”. The pIC50 (murine TYR [3]; dose-response curve at low concentration range, read-out: IC50 against murine TYR) was 5.37, the IC50 (murine TYR [3]) was 4.38 µM and the IC50 (murine TYR [6]) was 10.1 µM. For the same compound, the “inhibition of murine TYR” value (murine TYR [7]) was 32.7% and the “concentration causing cytotoxicity in HEMs” value [4] was “above 10 µM”.
